The numbers were not newly measured in patent US8791152B2, “Stable pharmaceutical composition containing docetaxel and a method of manufacturing the same” (SK Chemicals Co., Ltd., priority 2006, dated 2014), which cites them from elsewhere.

On to `CC(=O)O[C@@]12CO[C@@H]1C[C@H](O)[C@@]1(C)C(=O)[C@H](O)C3=C(C)[C@@H](OC(=O)[C@H](O)[C@@H](NC(=O)OC(C)(C)C)c4ccccc4)C[C@@](O)([C@@H](OC(=O)c4ccccc4)[C@H]21)C3(C)C` [Docetaxel, docetaxel], for which the Solubility in water entry was “almost insoluble in water”.
